{"source": "patent US20170128467A1", "about": "“ANTIMICROBIAL PHARMACEUTICAL COMPOSITIONS WITH MULTIPLE DRUG RESISTANCE INHIBITING PROPERTIES” (priority 2014, published 2017)", "key": {"Bacillus subtilis cells": {"system": "Bacillus subtilis cells", "experiment": "Growth inhibition assay in liquid medium, B. subtilis", "assay_type": "cell-based", "conditions": "for antimicrobial activity (growth inhibition): gram-positive", "procedure": "(§1) Growing in the liquid medium method was selected as the method to test antibacterial activity of SkQ1. Overnight bacterial cells cultures were diluted in fresh LB media. Bacterial cell culture (5×10^6 cells/ml) were inoculated 200 μl into 96-well plates (Eppendorf, Eppendorf AG, Hamburg, Germany) and SkQ1 or CnTPP were added to reach various final concentrations in the range from 0.5 to 200 μM. Cells were left to grow for 21 hours at 37° C. Optical density at 600 nm was measured using an AnthosZenyth 3100 multimode reader (Anthos Labtec, Austria) during incubation.\n(§2) We selected Ecsherishia coli cells as a Gram-negative model organism and Bacillus subtilis cells as a Gram-positive model organism. SkQ1 was selected as a model compound of formula 1 with antioxidant moiety. To select a proper concentration of a compound of formula 1 we performed growth inhibition assays for several SkQ1 concentrations (see FIGS. 8 A and B). It can be concluded from the results of this experiment that 1 μM SkQ1 is the minimal inhibitory concentration (MIC) for B. subtilis cells."}, "ΔTolC (JW5503)": {"system": "ΔTolC (JW5503)", "experiment": "Growth inhibition assay, TolC deletion mutant", "assay_type": "cell-based, Escherichia coli K-12", "conditions": "for IMPOSSIBILITY OF GROWTH: ΔTolC", "procedure": "as §1\n(§3) In this experiment we have tested whether To1C-dependent transporter is responsible for resistance of E. coli's cells to SkQ1. In the experiment we used single-gene knockout mutants from Keio collection [Baba T., et al., (2006)]. Construction of Escherichia coli K-12 in-frame, single-gene knockout mutants: the Keio collection. Mol. Syst. Biol. 2, 2006.0008.]. […] We used other knockout mutants of genes encoding proteins of transporters that require To1C for their function. […] In contrast, deletion of genes acrA or acrB dramatically changed the sensitivity of E. coli's cells to SkQ1.\nTable 1. Results of growth inhibition assay for deletion mutants of genes encoding To1C-required efflux pumps proteins. Deletion strains JW5503 (devoid of the to1C gene), JW0452 (devoid of the acrA gene), JW0451 (devoid of the acrB gene), JW2454 (devoid of the acrD gene), JW3233 (devoid of the acrE gene), JW3234 (devoid of the acrF gene), JW5338 (devoid of the mdtA gene), JW2060 (devoid of the mdtB gene), JW2061 (devoid of the mdtC gene), JW3481 (devoid of the mdtE gene), and JW3482 (devoid of the mdtF gene) have been described in Baba T., et al., (2006). Construction of Escherichia coli K-12 in-frame, single-gene knockout mutants: the Keio collection. Mol. Syst. Biol. 2, 2006.0008."}, "[1]": {"target": "T1, MDR pumps (Pdr5p) of yeast cells (Saccharomyces cerevisiae, UniProt P33302)", "T1 construct": "We measured the efflux of R6G from intact yeast cells using fluorometric method; endogenous in cells; host or cells: S. cerevisiae W303-1A (WT); AD1-8 as MDR-negative control", "T1 sequence (P33302 whole entry)": "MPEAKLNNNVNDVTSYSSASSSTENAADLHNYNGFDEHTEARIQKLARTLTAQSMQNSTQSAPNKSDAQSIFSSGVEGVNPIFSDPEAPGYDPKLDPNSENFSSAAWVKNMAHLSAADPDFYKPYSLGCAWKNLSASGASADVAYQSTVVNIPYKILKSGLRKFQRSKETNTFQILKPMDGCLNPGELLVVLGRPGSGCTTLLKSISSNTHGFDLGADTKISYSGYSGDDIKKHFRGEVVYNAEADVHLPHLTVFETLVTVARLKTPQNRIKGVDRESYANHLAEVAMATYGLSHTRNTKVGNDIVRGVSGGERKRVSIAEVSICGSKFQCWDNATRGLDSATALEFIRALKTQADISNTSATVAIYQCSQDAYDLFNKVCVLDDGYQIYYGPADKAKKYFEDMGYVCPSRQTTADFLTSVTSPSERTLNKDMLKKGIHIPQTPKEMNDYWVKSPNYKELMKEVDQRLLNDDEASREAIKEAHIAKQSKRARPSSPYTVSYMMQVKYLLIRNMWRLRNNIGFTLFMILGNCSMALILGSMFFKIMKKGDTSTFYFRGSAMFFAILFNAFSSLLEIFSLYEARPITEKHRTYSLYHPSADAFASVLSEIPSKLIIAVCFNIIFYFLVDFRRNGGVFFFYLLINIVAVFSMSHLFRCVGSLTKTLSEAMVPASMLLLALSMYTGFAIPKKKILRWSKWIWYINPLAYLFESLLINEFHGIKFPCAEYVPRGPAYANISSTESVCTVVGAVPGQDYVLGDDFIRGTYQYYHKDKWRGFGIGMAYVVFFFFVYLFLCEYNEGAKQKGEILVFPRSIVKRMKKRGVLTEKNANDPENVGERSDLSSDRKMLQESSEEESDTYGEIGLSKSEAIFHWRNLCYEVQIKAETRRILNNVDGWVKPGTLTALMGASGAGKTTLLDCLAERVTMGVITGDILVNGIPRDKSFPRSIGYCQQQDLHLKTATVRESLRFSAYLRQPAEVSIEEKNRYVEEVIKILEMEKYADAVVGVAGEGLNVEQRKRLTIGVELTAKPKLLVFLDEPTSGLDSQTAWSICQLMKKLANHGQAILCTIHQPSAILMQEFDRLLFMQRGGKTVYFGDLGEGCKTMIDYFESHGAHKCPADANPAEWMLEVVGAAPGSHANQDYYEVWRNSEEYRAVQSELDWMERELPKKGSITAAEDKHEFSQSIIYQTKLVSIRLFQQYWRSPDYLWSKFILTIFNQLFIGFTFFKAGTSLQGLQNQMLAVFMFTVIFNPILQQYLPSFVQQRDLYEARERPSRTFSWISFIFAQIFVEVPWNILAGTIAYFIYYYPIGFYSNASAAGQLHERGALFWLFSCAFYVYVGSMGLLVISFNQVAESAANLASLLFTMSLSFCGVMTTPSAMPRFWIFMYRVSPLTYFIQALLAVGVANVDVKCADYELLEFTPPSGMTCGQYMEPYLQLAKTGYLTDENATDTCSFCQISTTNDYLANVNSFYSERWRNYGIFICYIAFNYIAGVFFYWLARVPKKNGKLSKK", "assay_type": "cell-based", "conditions": "2 μM compound", "procedure": "The ordinate corresponds to the ratio of slopes in a and b.\nTo measure the relative rate of rhodamine 6G efflux we used fluorometric assay implemented by Kolaczkowsky et al., with few modifications. Cells were grown overnight in 40 ml in liquid YPD to density of 0.5-1*10^7 cells/ml, washed twice with cold sterile water and resuspended in 10 ml phosphate buffer saline supplemented with 5 mM 2-deoxyglucose and 2.5 mM 2,4-dinitrophenol. Cell suspension was incubated for 45 minutes on a rotatory shaker, then the inhibitors were removed by two cycles of centrifugation/resuspension in cold water. The energy deprived cells were resuspended in 10 ml of PBS and then stained with R6G (10 μM) for 30 minutes. Then cell suspension was pelleted, resuspended in equal volume of PBS and stored on ice for 1-5 hours. The measurements of efflux were performed with FluoroMax-3 fluorometer system with exication wavelength set to 480 nm, and emission wavelength set to 560 nm. The R6G efflux was initiated by addition of 0.1% glucose, cell density in fluorometric cuvette was 10^6 cells/ml."}, "ΔAcrB (JW0451)": {"system": "ΔAcrB (JW0451)", "experiment": "Growth inhibition assay, AcrB deletion mutant", "assay_type": "cell-based, Escherichia coli K-12", "procedure": "as §1, §3\n(§4) Table 1. Results of growth inhibition assay for deletion mutants of genes encoding To1C-required efflux pumps proteins. […]"}, "AcrAB-To1C transporter": {"target": "T2, AcrAB-To1C transporter (Escherichia coli, UniProt P31224)", "T2 construct": "endogenous in cells", "T2 sequence (P0AE06 25-397)": "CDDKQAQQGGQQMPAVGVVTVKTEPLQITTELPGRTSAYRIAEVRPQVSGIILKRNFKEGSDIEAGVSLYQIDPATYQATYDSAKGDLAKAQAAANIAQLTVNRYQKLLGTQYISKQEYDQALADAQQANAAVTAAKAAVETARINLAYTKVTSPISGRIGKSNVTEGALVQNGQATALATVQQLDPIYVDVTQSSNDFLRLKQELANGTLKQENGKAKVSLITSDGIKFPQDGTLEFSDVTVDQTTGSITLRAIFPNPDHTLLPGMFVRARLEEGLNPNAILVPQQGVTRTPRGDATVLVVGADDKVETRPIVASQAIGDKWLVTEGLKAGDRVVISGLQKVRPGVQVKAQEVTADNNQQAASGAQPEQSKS", "T2 sequence (P02930 23-493, further chain)": "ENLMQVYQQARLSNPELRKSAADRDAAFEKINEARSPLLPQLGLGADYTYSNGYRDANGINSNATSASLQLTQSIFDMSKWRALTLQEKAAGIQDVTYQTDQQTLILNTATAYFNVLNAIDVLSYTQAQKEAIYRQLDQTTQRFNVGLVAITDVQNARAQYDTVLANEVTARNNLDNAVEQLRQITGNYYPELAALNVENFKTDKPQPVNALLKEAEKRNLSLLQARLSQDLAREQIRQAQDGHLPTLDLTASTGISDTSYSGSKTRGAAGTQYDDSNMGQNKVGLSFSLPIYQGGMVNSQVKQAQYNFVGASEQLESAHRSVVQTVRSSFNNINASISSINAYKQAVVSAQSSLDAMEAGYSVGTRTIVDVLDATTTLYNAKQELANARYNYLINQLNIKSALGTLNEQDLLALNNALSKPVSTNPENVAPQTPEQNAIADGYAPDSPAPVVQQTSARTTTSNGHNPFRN", "T2 sequence (P31224 whole entry)": "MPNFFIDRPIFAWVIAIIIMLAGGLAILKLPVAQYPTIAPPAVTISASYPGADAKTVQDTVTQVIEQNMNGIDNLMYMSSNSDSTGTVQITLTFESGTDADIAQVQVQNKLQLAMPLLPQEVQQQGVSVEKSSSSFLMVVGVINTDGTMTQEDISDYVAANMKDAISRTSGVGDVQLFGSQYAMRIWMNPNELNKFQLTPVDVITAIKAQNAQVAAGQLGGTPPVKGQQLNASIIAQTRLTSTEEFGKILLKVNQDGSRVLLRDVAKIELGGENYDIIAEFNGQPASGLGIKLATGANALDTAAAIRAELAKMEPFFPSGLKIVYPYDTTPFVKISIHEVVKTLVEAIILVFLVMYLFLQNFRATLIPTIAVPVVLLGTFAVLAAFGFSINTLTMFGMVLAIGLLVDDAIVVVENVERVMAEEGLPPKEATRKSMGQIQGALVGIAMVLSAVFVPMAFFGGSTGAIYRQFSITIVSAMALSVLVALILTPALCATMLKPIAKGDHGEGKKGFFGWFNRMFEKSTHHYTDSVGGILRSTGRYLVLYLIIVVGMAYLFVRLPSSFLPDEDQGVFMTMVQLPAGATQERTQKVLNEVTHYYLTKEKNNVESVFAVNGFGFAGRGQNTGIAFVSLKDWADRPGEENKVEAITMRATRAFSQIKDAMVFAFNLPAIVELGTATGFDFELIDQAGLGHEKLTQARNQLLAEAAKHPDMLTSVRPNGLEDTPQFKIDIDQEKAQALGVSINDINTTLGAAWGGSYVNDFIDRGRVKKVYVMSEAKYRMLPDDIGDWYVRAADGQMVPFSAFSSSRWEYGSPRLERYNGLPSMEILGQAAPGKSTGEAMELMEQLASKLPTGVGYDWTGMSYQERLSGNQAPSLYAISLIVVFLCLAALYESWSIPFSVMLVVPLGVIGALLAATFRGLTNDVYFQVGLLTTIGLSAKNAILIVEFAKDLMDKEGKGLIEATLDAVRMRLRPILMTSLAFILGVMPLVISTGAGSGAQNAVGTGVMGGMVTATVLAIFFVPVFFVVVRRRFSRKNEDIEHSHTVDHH", "experiment": "Ethidium bromide accumulation experiment", "assay_type": "cell-based", "conditions": "SkQ1 50 μM; ethidium bromide 20 μg/ml", "procedure": "For emulation of cell membrane leakage, bacterial cells were resuspended in deionized water. Ethidium bromide was added (20 μg/ml) and the change of fluorescence intensity was recorded on Fluorat-02-Panorama. For detecting of the accumulation of ethidium bromide, SkQ1 was added to a concentration of 50 μM.\nTo confirm whether AcrAB-To1C is the appropriate transporter, we used a test based on the measurement of ethidium bromide leakage through intact bacterial membranes. […] Bacterial cells were prepared and resuspended in PBS. For emulation of cell membrane leakage bacterial cells were resuspended in deionized water (Milli-Q water purification system, EMD Millipore, Billerica, Mass.). Ethidium bromide was added (20 μg/ml) and the change of fluorescence intensity was recorded on Fluorat-02-Panorama (Lumex Instruments, Russia) spectrofluorometer. For increasing the accumulation of ethidium bromide, SkQ1 was added to reach a concentration of 50 μM. […] We observed ethidium bromide accumulation when ethidium bromide concentration was 40-times less than MIC for E. coli cells that only can be the result of collateral action of SkQ1 and ethidium bromide as substrates for AcrAB-To1C transporter."}, "[2]": {"system": "S. cerevisiae W303-1A and PGAL-PDR5, PGAL-SNQ2, PGAL-YOR1 strains", "experiment": "Survival assay (CFU) of yeast treated with C12TPP or SkQ1", "assay_type": "cell-based, Saccharomyces cerevisiae", "conditions": "galactose-grown cells, 3 hours treatment", "text": "FIG. 1A show the chemical structure of dodecyltriphenylphosphonium C12TPP and its plastoquinone derivative (SkQ1) used in this study.\nIn this example, we used W303-1A S. cerevisiae strains and its derivatives: AD1-8 with deletions of eight MDR genes [W303-1A, yor1::hisG, snq2::hisG, pdr5:shisG, pdr10::hisG, pdr11::hisG, ycf1::hisG, pdr3::hisG, pdr15::hisG][4]□, PGAL-PDR5 [W303-1A HIS3::PGAL-PDR5], PGAL-SNQ2 [W303-1A HIS3::PGAL-SNQ2], and […] [W303-1AHIS3::PGAL-YOR1](this study). Cells were grown in YPD medium (2% glucose, 1% bactopeptone, 1% yeast extract), or in YPGal (2% galactose, 1% bactopepton, 1% yeast extract). For genetic screening and maintenance of strains with conditionally expressed genes synthetic drop-out media YNB-Leu or YNB-His were used according to Sherman 2000 [5]. The growth rates were measured by increase of light scattering (λ=550 nm) in liquid yeast culture.\nExponentially grown cells were taken and treated with indicated amounts of C12TPP or SKQ1 for 3 hours. Then cell suspensions were plated on solid YPD medium and incubated for 48 hours, the number of formed colonies were counted. 100% refers to the number of colony forming units (CFU) in yeast suspension at the beginning of experiment."}, "ΔAcrA (JW0452)": {"system": "ΔAcrA (JW0452)", "experiment": "Growth inhibition assay, AcrA deletion mutant", "assay_type": "cell-based, Escherichia coli K-12", "procedure": "as §1, §3, §4"}, "E. coli": {"system": "E. coli", "experiment": "Growth inhibition assay in liquid medium, E. coli", "assay_type": "cell-based, Escherichia coli", "procedure": "as §1, §2"}}}
{"smiles": "CCCCCCCC[P+](c1ccccc1)(c1ccccc1)c1ccccc1", "note": "[C8TPP, octyltriphenylphosphonium]", "values": [{"measurement": "antimicrobial activity (growth inhibition)", "setting": "Bacillus subtilis cells", "result": "have antimicrobial activity"}, {"measurement": "antimicrobial activity (growth inhibition)", "setting": "ΔTolC (JW5503); To1C-deletion mutant", "result": "have antimicrobial activity"}]}
{"smiles": "CC1=C(C)C(=O)C(CCCCCCCCCC[P+](c2ccccc2)(c2ccccc2)c2ccccc2)=CC1=O", "note": "[SkQ1, plastoquinonildecyltriphenylphosphonium]", "values": [{"measurement": "inhibition of glucose-induced R6G efflux from yeast cells", "setting": "[1]", "result": "much more efficient"}, {"measurement": "inhibition of glucose-induced R6G efflux from yeast cells pretreated with NaN3", "setting": "[1]; cells pretreated with 10 mM NaN3", "result": "inhibits glucose-induced R6G efflux"}, {"measurement": "IMPOSSIBILITY OF GROWTH", "setting": "ΔAcrB (JW0451); 5 μM", "result": "YES"}, {"measurement": "IMPOSSIBILITY OF GROWTH", "setting": "ΔAcrB (JW0451); 30 μM", "result": "YES"}, {"measurement": "ethidium bromide leakage through bacterial membranes (accumulation)", "setting": "AcrAB-To1C transporter", "result": "comparable to ethidium bromide leakage during osmotic shock"}, {"measurement": "substrate of AcrAB-To1C transporter", "setting": "AcrAB-To1C transporter", "result": "is a substrate for AcrAB-To1C transporter"}, {"measurement": "resistance of cells (survival) under overexpression of MDR pump genes", "setting": "[2]", "result": "did not observe any effect of MDR overexpression"}, {"measurement": "MIC", "setting": "Bacillus subtilis cells; Bacillus subtilis, LB media, 37° C., read-out: minimal inhibitory concentration (MIC)", "result": 1, "unit": "µM"}, {"measurement": "antimicrobial activity (growth inhibition)", "setting": "Bacillus subtilis cells", "result": "strong antimicrobial activity"}, {"measurement": "IMPOSSIBILITY OF GROWTH", "setting": "ΔAcrA (JW0452); 5 μM", "result": "YES"}, {"measurement": "IMPOSSIBILITY OF GROWTH", "setting": "ΔAcrA (JW0452); 30 μM", "result": "YES"}, {"measurement": "MBC", "setting": "ΔTolC (JW5503); Escherichia coli, read-out: minimal bactericidal concentration", "result": "~2", "unit": "µM"}, {"measurement": "IMPOSSIBILITY OF GROWTH", "setting": "ΔTolC (JW5503); 5 μM", "result": "YES"}, {"measurement": "IMPOSSIBILITY OF GROWTH", "setting": "ΔTolC (JW5503); 30 μM", "result": "YES"}, {"measurement": "growth inhibition at 1 μM", "setting": "E. coli; 1 μM SkQ1", "result": "did not inhibit significantly growth"}, {"measurement": "MIC", "setting": "E. coli; Escherichia coli, LB media, 37° C., read-out: minimal inhibitory concentration (MIC)", "result": 50, "unit": "µM"}, {"measurement": "antimicrobial activity (growth inhibition)", "setting": "E. coli; gram-negative", "result": "mild antimicrobial activity"}]}
{"smiles": "CC1=C(C)C(=O)C(CCCCCCCCCC[P+](c2ccccc2)(c2ccccc2)c2ccccc2)=C(C)C1=O", "note": "[SkQ3]", "values": [{"measurement": "antimicrobial activity (growth inhibition)", "setting": "Bacillus subtilis cells", "result": "have antimicrobial activity"}]}
{"smiles": "CC1=C(C)C(=O)C(CCCCC[P+](c2ccccc2)(c2ccccc2)c2ccccc2)=CC1=O", "note": "[SkQ5]", "values": [{"measurement": "antimicrobial activity (growth inhibition)", "setting": "Bacillus subtilis cells", "result": "have antimicrobial activity"}]}
{"smiles": "CC1=CC(=O)C(CCCCCCCCCC[P+](c2ccccc2)(c2ccccc2)c2ccccc2)=CC1=O", "note": "[SkQT-para]", "values": [{"measurement": "antimicrobial activity (growth inhibition)", "setting": "Bacillus subtilis cells", "result": "have antimicrobial activity"}]}
